# Test results published in patent US6706880B2 (Research Triangle Institute, priority 1990, dated 2004).
# Structures can show the parent of a compound that is named as a salt. Where two headings read alike, the source gives them in different places.
# How the values were obtained:
# dopamine transporter [1] = target: dopamine transporter (UniProt P23977); assay type: binding
# From the text: (§1) Illustrative in vitro assays for binding are described in Boja et al Ann. NY Acad. Sci. 654:282-291 (1992), which is incorporated herein by reference in its entirety. […] Alternatively, the compounds may be analyzed by their ability to inhibit reuptake of a labelled neurotransmitter in a sample, in particular, in synaptosomes.
# dopamine transporter [2] = assay type: binding; conditions: ratio of IC50 values, Table II
# From the text: as §1
# serotonin transporter = target: T1, serotonin transporter (Rattus norvegicus, UniProt P31652); assay: Inhibition of [3H]paroxetine radioligand binding at the serotonin transporter
# T1 construct: from tissue
# T1 sequence (P31652 whole entry): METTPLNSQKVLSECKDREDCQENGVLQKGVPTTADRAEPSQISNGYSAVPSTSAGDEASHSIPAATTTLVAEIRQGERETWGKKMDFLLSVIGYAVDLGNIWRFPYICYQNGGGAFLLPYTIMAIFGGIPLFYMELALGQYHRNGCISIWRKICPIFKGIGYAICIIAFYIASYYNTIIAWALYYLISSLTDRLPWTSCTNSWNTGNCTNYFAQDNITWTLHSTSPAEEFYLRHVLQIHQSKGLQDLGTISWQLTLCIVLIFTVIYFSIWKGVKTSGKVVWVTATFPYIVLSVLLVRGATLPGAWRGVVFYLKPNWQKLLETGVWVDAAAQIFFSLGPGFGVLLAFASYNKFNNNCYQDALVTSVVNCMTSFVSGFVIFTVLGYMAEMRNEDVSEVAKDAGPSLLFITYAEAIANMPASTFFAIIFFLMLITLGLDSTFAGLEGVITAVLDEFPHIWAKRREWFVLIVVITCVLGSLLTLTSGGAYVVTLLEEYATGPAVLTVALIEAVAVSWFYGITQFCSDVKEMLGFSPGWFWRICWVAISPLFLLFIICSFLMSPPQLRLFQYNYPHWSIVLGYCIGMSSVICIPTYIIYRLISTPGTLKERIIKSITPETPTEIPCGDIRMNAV
# From the text: as §1
# [3] = target: norepinephrine transporter (UniProt Q9WTR4); assay: Inhibition of [3H]nisoxetine radioligand binding at the norepinephrine transporter
# From the text: as §1
# [4] = read-out: IC50 DA [3H]-WIN 35,428, Table II
# [5] = IC50 5-HT [3H]-paroxatine, Table II
# [6] = read-out: IC50 NE [3H]-nisoxetine, Table II
# [7] = read-out: NEN IC50 for inhibition of radioligand binding, NEN=[3H] nisoxetine
# [8] = read-out: DA IC50 for inhibition of radioligand binding, DA=[3H]WIN 35,428
# [9] = 5-HT IC50 for inhibition of radioligand binding, 5-HT=[3H] paroxetine
# [10] = 5-HT=[3H] paroxetine, read-out: 5-HT IC50 for inhibition of radioligand binding
# [11] = read-out: IC50 DA [3H]-WIN 35,428, Table IV
# [12] = IC50 5-HT [3H]-paroxetine, Table IV
# [13] = read-out: IC50 NE [3H]-nisoxetine, Table IV
Compound,"IC50 [3, 7]",IC50 (dopamine transporter [1]; [8]),IC50 (serotonin transporter; [9]),IC50 (serotonin transporter; [10]),other results
"Cc1cc([C@H]2[C@@H](c3ccc(I)cc3)C[C@@H]3CC[C@H]2N3C)on1 [RTI-4229-180, 3β-(4-Iodophenyl)-2β-(3-methylisoxazol-5-yl)tropane Hydrochloride]",67.9 nM,,,,"IC50 (dopamine transporter [1]; [4]): 0.73 nM; NE/DA Ratio (dopamine transporter [2]): 93; IC50 (serotonin transporter; [5]): 36.4 nM; IC50 [3, 6]: 67.9 nM"
"CN1[C@H]2CC[C@@H]1[C@@H](c1nc3ccccc3s1)[C@@H](c1ccc(Cl)cc1)C2 [RTI-4229-202, 3β-(4-Chlorophenyl)-2β-(benzothiazol-2-yl)-tropane Hydrochloride]",403 nM,1.37 nM,1120 nM,,"IC50 (dopamine transporter [1]; [4]): 1.37 ± 0.14 nM; 5-HT/DA Ratio (dopamine transporter [2]): 817; NE/DA Ratio (dopamine transporter [2]): 294; IC50 (serotonin transporter; [5]): 1120 ± 120 nM; IC50 [3, 6]: 403 ± 30 nM"
COC(=O)[C@H]1[C@@H](c2ccc(C#Cc3ccccc3)cc2)C[C@@H]2CC[C@H]1N2C [RTI-4229-298],347 nM,3.7 nM,46.8 nM,,
C=C(C)c1ccc(C2CC3CCC(C2C(=O)OC)N3C)cc1 (stereo not drawn) [RTI-4229-283],3130 nM,14.3 nM,,3.13 nM,
CC#Cc1ccc(C2CC3CCC(C2C(=O)OC)N3C)cc1 (stereo not drawn) [RTI-4229-281],820 nM,2.37 nM,,15.7 nM,
CN1C2CCC1C(c1nc(-c3ccc(Cl)cc3)no1)C(c1ccc(Cl)cc1)C2 (stereo not drawn) [RTI-4229-143],4070 nM,4.1 nM,404 nM,,
COC(=O)C1C2CCC(CC1c1ccc(C)cc1)N2 (stereo not drawn) [RTI-4229-305],21.8 nM,1.24 nM,1.59 nM,,
"Cc1ccc([C@H]2C[C@@H]3CC[C@H]([C@H]2C#N)N3C)cc1 [RTI-158, 3β-(4-Methylphenyl)-tropane-2β-nitrile Hydrochloride]",,,,,"IC50 (dopamine transporter [1]; [11]): 57 ± 7.3 nM; IC50 (serotonin transporter; [12]): 5100 ± 315 nM; IC50 [3, 13]: 1620 ± 136 nM"
O=C1CCN2C3CCC2C1C(c1ccc(Cl)cc1)C3 (stereo not drawn) [RTI-4229-243],,129 nM,156 nM,,"IC50 ([3]; NEN=[3H] nisoxetine, read-out: NEN IC50 for inhibition of radioligand binding): 540 nM"
CN1C2CCC1C(C(=O)NCO)C(c1ccc(Cl)cc1)C2 (stereo not drawn) [RTI-4229-146],144 nM,2.05 nM,,98 nM,
CN1C2CCC1C(COC(=O)c1ccccc1)C(c1ccc(Cl)cc1)C2 (stereo not drawn) [RTI-4229-123],393 nM,1.78 nM,3.53 nM,,"IC50 (dopamine transporter [1]; [11]): 1.78 ± 0.09 nM; IC50 (serotonin transporter; [12]): 3.53 ± 0.58 nM; IC50 [3, 13]: 393 ± 30 nM"
CN1C2CCC1[C@@H](c1cc(-c3ccc(Cl)cc3)no1)[C@@H](c1ccc(Cl)cc1)C2 (stereo partly drawn) [RTI-4229-345],5290 nM,6.42 nM,> 76000 nM,,
CC(=O)OC[C@@H]1C2CCC(C[C@@H]1c1ccc(Cl)cc1)N2C (stereo partly drawn) [RTI-4229-105],127 nM,1.6 nM,143 nM,,"IC50 (dopamine transporter [1]; [11]): 1.8 ± 0.05 nM; IC50 (serotonin transporter; [12]): 143 ± 25 nM; IC50 [3, 13]: 127 ± 5.9 nM"
CC1C(c2ccc(Cl)cc2)CC2CCC1N2C (stereo not drawn) [RTI-4229-139],56.9 nM,1.67 nM,85 nM,,"IC50 (dopamine transporter [1]; [11]): 1.87 ± 0.13 nM; IC50 (serotonin transporter; [12]): 85 ± 9.3 nM; IC50 [3, 13]: 57 ± 2.6 nM"
CC(C)OC(=O)C1C(c2ccc(I)cc2)CC2CCC1N2C (stereo not drawn) [RTI-4229-121],285 nM,0.43 nM,55.8 nM,,
Cc1noc(C2C(c3ccccc3)CC3CCC2N3C)n1 (stereo not drawn) [RTI-4229-126],7880 nM,100 nM,3820 nM,,
C/C=C/c1ccc(C2CC3CCC(C2C(=O)OC)N3C)cc1 (stereo not drawn) [RTI-4229-296],1590 nM,5.29 nM,,11.4 nM,
CC(C)c1noc(C2C(c3ccc(Cl)cc3)CC3CCC2N3C)n1 (stereo not drawn) [RTI-4229-154],135 nM,6 nM,3460 nM,,
COC(=O)OCC1C(c2ccc(Cl)cc2)CC2CCC1N2C (stereo not drawn) [RTI-4229-145],1480 nM,9.6 nM,2930 nM,,"IC50 (dopamine transporter [1]; [11]): 9.6 ± 0.42 nM; IC50 (serotonin transporter; [12]): 2930 ± 181 nM; IC50 [3, 13]: 1480 ± 96 nM"
Cc1ccccc1OC(=O)C1C(c2ccc(Cl)cc2)CC2CCC1N2C (stereo not drawn) [RTI-4229-204],4780 nM,3.91 nM,,3770 nM,
CCc1ccc(C2CC3CCC(N3)C2C(=O)OC)cc1 (stereo not drawn) [RTI-4229-173],122 nM,49.9 nM,,8.13 nM,
CCC#Cc1ccc(C2CC3CCC(N3)C2C(=O)OC)cc1 (stereo not drawn) [RTI-4229-307],116 nM,6.11 nM,3.16 nM,,
Cc1ccc(-c2cc([C@@H]3C4CCC(C[C@@H]3c3ccc(Cl)cc3)N4C)on2)cc1 (stereo partly drawn) [RTI-4229-336],1710 nM,4.09 nM,5740 nM,,
Cc1ccc(C2CC3CCC([C@H]2C(=O)OC2CCC2)N3C)cc1 (stereo partly drawn) [RTI-4229-150],4740 nM,3.74 nM,2020 nM,,
COC(=O)C1C(c2ccc(F)c(C)c2)CC2CCC1N2C (stereo not drawn) [RTI-4229-96],520 nM,2.95 nM,76 nM,,

Compound,"IC50 [3, 7]",IC50 (dopamine transporter [1]; [8]),IC50 (serotonin transporter; [9]),IC50 (serotonin transporter; [10]),other results
Cc1ccc(C2CC3CCC(C2C(C)C)N3C)cc1 (stereo not drawn) [RTI-4229-239],35.6 nM,0.61 nM,114 nM,,"IC50 (dopamine transporter [1]; [11]): 0.61 ± 0.07 nM; IC50 (serotonin transporter; [12]): 114 ± 3.69 nM; IC50 [3, 13]: 35.6 ± 2.57 nM"
COC(=O)C1C(c2ccc3ccccc3c2)CC2CCC1N2C (stereo not drawn) [RTI-4229-319],70.2 nM,1.1 nM,11.4 nM,,
CCCc1ccc(C2CC3CCC(C2C(=O)OC)N3C)cc1 (stereo not drawn) [RTI-4229-282],3920 nM,68.5 nM,,70.4 nM,
CN1C2CCC1C(c1nc(-c3ccccc3)no1)C(c1ccc(Cl)cc1)C2 (stereo not drawn) [RTI-4229-130],245 nM,1.62 nM,,195 nM,
CN1[C@H]2CC[C@@H]1[C@@H](C(=O)O)[C@@H](c1ccc(I)cc1)C2 [RTI-102],,,,,"IC50 (dopamine transporter [1]; [11]): 474 ± 57 nM; IC50 (serotonin transporter; [12]): 1930 ± 120 nM; IC50 [3, 13]: 43400 nM"
COC(=O)[C@@H]1C2CCC(C[C@@H]1c1ccc(I)cc1)N2 (stereo partly drawn) [RTI-4229-98],11 nM,0.69 nM,0.36 nM,,
COC(=O)[C@@H]1C2CCC(C[C@@H]1c1ccc3ccccc3c1)N2C (stereo partly drawn) [RTI-4229-318],21.1 nM,0.51 nM,0.8 nM,,
COC(=O)[C@@H]1C2CCC(C[C@@H]1c1ccc(N)c(Br)c1)N2C (stereo partly drawn) [RTI-4229-97],282 nM,3.91 nM,181 nM,,
CC(C)C1C(c2ccc(Cl)cc2)CC2CCC1N2C (stereo not drawn) [RTI-4229-240],84.5 nM,1.38 nM,38.4 nM,,"IC50 (dopamine transporter [1]; [11]): 1.38 ± 0.03 nM; IC50 (serotonin transporter; [12]): 38.4 ± 2.31 nM; IC50 [3, 13]: 84.5 ± 3.09 nM"
CN1C2CCC1C(C(=O)N1CCCCOCC1)C(c1ccc(Cl)cc1)C2 (stereo not drawn) [RTI-4229-214],8550 nM,2.9 nM,88800 nM,,
COc1ccc(-c2noc(C3C(c4ccc(Cl)cc4)CC4CCC3N4C)n2)cc1 (stereo not drawn) [RTI-4229-141],835 nM,1.81 nM,337 nM,,
C=Cc1ccc(C2CC3CCC(N3)C2C(=O)OC)cc1 (stereo not drawn) [RTI-4229-309],14.9 nM,1.73 nM,,2.25 nM,
CCc1cc([C@@H]2C3CCC(C[C@@H]2c2ccc(Cl)cc2)N3C)on1 (stereo partly drawn) [RTI-4229-334],120 nM,0.5 nM,3090 nM,,
CCc1ccc(C2CC3CCC(C2C(=O)OC)N3C)cc1 (stereo not drawn) [RTI-4229-287],17800 nM,325 nM,1690 nM,,
CN1C2CCC1[C@@H](c1cc(-c3ccc(F)cc3)no1)[C@@H](c1ccc(Cl)cc1)C2 (stereo partly drawn) [RTI-4229-347],918 nM,1.86 nM,7260 nM,,
CN1C2CCC1C(C(=O)Oc1ccccc1)C(c1ccc(Cl)cc1)C2 (stereo not drawn) [RTI-4229-113],2960 nM,1.98 nM,,2330 nM,
Cc1ccc(OC(=O)C2C(c3ccc(Cl)cc3)CC3CCC2N3C)cc1 (stereo not drawn) [RTI-4229-206],1280 nM,27.4 nM,,1200 nM,
COC(=O)[C@@H]1C2CCC(C[C@@H]1c1ccc(Cl)c(C)c1)N2C (stereo partly drawn) [RTI-4229-112],36.2 nM,0.82 nM,10.5 nM,,
C/C=C\c1ccc(C2C[C@H]3CCC(C2C(=O)OC)N3C)cc1 (stereo partly drawn) [RTI-4229-304],2800 nM,15 nM,7.09 nM,,
CN1C2CCC1C(COc1ccc(I)cc1)C(c1ccc(Cl)cc1)C2 (stereo not drawn) [RTI-4229-116],968 nM,33 nM,1230 nM,,
CCc1ccc(C2CC3CCC(N3)C2C(=O)OC)cc1I (stereo not drawn) [RTI-4229-353],148 nM,331 nM,,0.69 nM,"IC50 (dopamine transporter [1]; read-out: IC50 DA [3H] WIN 35,428, Table III): 331 ± 17 nM; potency at the serotonin site (serotonin transporter; in words): highly potent; selectivity relative to the dopamine and norepinephrine sites (serotonin transporter; in words): selective; IC50 (serotonin transporter; read-out: IC50 5-HT [3H] Paroxetine, Table III): 0.69 ± 0.07 nM; IC50 ([3]; read-out: IC50 NE [3H] Nisoxetine, Table III): 148 ± 9.2 nM"
Cc1ccc(C2CC3CCC(C2C(=O)OC(C)C)N3C)cc1 (stereo not drawn) [RTI-4229-117],1930 nM,6.45 nM,,6090 nM,
COC(=O)C1C(c2ccc(I)cc2)CC2CCC1N2C (stereo not drawn) [RTI-4229-352],52.4 nM,2.86 nM,,64.9 nM,
COC(=O)C1C2CCC(CC1c1ccc(Cl)cc1)N2 (stereo not drawn) [RTI-4229-110],5.45 nM,0.62 nM,,4.13 nM,
